Our source for the inhibition in vivo, LD50 and IC50 values is patent US5063247A, “Diphenylurea derivatives” (Mitsubishi Kasei Corporation, priority 1989, dated 1991).

The test system of series [1] is cholesterol in serum. Nature of the series: Effect of reducing lipid level in blood: percent inhibition of cholesterol in serum of hamsters fed 1% cholesterol and 0.5% cholic acid diet. As to conditions: Mesocricetus auratus, po, 120 h, orally once a day for 5 days, relative to control group. Format: in vivo, Male golden Syrian hamsters. Here is the method: The effect of reducing a lipid level in blood by the action of the compounds according to the present invention was determined as follows:
Male golden Syrian hamsters weighing from 80 to 100 g were randomly divided into groups. The hamsters were first fed standard laboratory diets (solid feed MF-1 for mouse/rat/hamster, manufactured by Oriental Yeast Industries, KK) for 3 days. Then, they were fed the experimental diet containing 1% cholesterol and 0.5% cholic acid (manufactured by Oriental Yeast Industries, KK), ad libitum. At the same time, the compounds of the invention formulated in a shown dose (25 mg or 50 mg/10 ml water/kg) were administrated to the animals orally once a day at a determined time for 5 days. Water was administrated orally to the hamsters of control group in an amount of 10 ml per 1 kg of body weight. After five days of administrating the compounds, they were anesthetized with Pentobarbital Na (Nembutal injection, manufactured by Dainabbot) and three hours after the final administration of the test compound, a blood samples (2-3 ml) was taken from abdominal cava. The serum was separated by centrifuging.
The cholesterol level in the serum was determined by using a blood cholesterol measuring kit, Determina-TC5 manufactured by Kyowa Medix Co. The results are represented by percent inhibition (%) of cholesterol level in serum relative to that of the control group, and shown in the following Table 4, each compound number corresponding to that in the above Table 3.

The test system of series [2] is cholesterol in serum. The series is described as above. Format: in vivo, Male golden Syrian hamsters. The note with it: Mesocricetus auratus, po, 120 h, orally once a day for 5 days, relative to control group. This is another data set of the same source.
The next series can be described thus: Acute toxicity test. As to conditions: rat, in vivo, po; P.O., suspended in 1% tragacanth solution, SD male and female rats, seven day observation. The source says:
A compound according to the present invention suspended in a 1% tragacanth solution was administrated orally to SD male and female rats. Then, the number of fatal rats was counted during seven day observation. The LD50 value is shown in the following Table 6, the compound number corresponding to that in the above Table 3.

The target in series [3] is ACAT (acyl coenzyme cholesterol acyltransferase). Nature of the series: ACAT inhibitory action in hamster microsomes (cholesteryl-[14C] oleate formation). It counts as biochemical. As to conditions: radio-labelled oleoyl coenzyme A. On the procedure: The ACAT inhibitory action of the compounds according to the present invention was measured as follows:
ACAT activity in the hamster microsomes was determined by measuring the rate of radio-active cholesteryl-[^14 C] oleate formation from cholesterol and radio-labelled oleoyl coenzyme A (^14 C) with or without test compound.
Calculations of IC50 value were made using data of the percent inhibition at each compound concentration. The results are shown in the following Table 5, each compound number corresponding to that in Table 3.

As a reminder, the inhibition in vivo is the relative decrease from the control value, in per cent. Low values mean a response near the control, high ones a response far below the control. The term LD50 denotes the dose at which mortality reaches 50%. The low end stands for a more toxic substance, the high end for a less toxic substance. The term IC50 denotes the midpoint of a concentration-inhibition curve.

Each structure is given as a SMILES string.

In turn, `CCCCCCCCc1ccc(NC(=O)Nc2c(Cl)cccc2Cl)cc1` [Compound No. 2, 1-(4-octylphenyl)-3-(2,6-dichlorophenyl)urea] had an inhibition in vivo at 25 mg/kg in the series on cholesterol in serum [1] of 49%.

Turning to `CCCCCCCCc1ccc(NC(=O)Nc2c(C(C)C)cccc2C(C)C)cc1` [Compound No. 8], in the series with cholesterol in serum [1], the inhibition in vivo at 25 mg/kg is 55%. For the same compound, the inhibition in vivo at 5 mg/kg in the series with cholesterol in serum [2] is 35%. The LD50 at 168 h in “Acute toxicity test” is greater than 2000 mg/kg. The same compound returned an IC50 in series [3] of 0.004 µM.

The compound `CCCCCCCCCc1ccc(NC(=O)Nc2c(C(C)C)cccc2C(C)C)cc1` [Compound No. 19, 1-(4-nonylphenyl)-3-(2,6-diisopropylphenyl)urea] gave an inhibition in vivo at 25 mg/kg with cholesterol in serum [1] of 64%. In series [3], this compound displayed a half-maximal inhibitory concentration (IC50) of 0.01 µM.

For the compound `CC(C)c1cccc(C(C)C)c1NC(=O)Nc1ccc(C(C)(C)C)cc1` [Compound No. 26, reference compound], at 25 mg/kg the inhibition in vivo with cholesterol in serum [1] was 19%.

`CCCCCCCCc1ccc(NC(=O)Nc2c(Br)cccc2Br)cc1` [compound 4] returned an inhibition in vivo at 25 mg/kg with cholesterol in serum [1] of 55%.

`CCCCCCCCc1ccc(NC(=O)Nc2c(C)cccc2C)cc1` [compound 5] showed an inhibition in vivo at 25 mg/kg in the series on cholesterol in serum [1] of 44%.

Regarding `CCCCCCCCc1ccc(NC(=O)Nc2c(CC)cccc2CC)cc1` [compound 7], the inhibition in vivo at 25 mg/kg in the series on cholesterol in serum [1] worked out at 48%.

Consider `CCCCCCCCc1ccc(NC(=O)Nc2c(Cl)ccc(C)c2Cl)cc1` [compound 11], for which testing at 25 mg/kg in the series with cholesterol in serum [1] gave an inhibition in vivo of 47%.

With `CCCCCCCCc1ccc(NC(=O)Nc2c(OC)cccc2OC)cc1` [compound 12], the inhibition in vivo at 25 mg/kg with cholesterol in serum [1] came out at 54%.

`CCCCCCCCc1ccccc1NC(=O)Nc1c(C(C)C)cccc1C(C)C` [compound 13] gave an inhibition in vivo at 25 mg/kg with cholesterol in serum [1] of 54%.

The compound `CCCCCc1ccc(NC(=O)Nc2c(C(C)C)cccc2C(C)C)cc1` [compound 16] registered an inhibition in vivo at 25 mg/kg with cholesterol in serum [1] of 34%.

`CCCCCCc1ccc(NC(=O)Nc2c(C(C)C)cccc2C(C)C)cc1` [compound 17] displayed an inhibition in vivo at 25 mg/kg in the series on cholesterol in serum [1] of 60%. In series [3], this compound gave a 50% inhibitory concentration (IC50) of 0.011 µM.

`CCCCCCCc1ccc(NC(=O)Nc2c(C(C)C)cccc2C(C)C)cc1` [compound 18] had an inhibition in vivo at 25 mg/kg in the series with cholesterol in serum [1] of 49%. Besides, the IC50 in series [3] amounted to 0.006 µM.

In the series on cholesterol in serum [1], `CCCCCCCCCCc1ccc(NC(=O)Nc2c(C(C)C)cccc2C(C)C)cc1` [compound 20] gave an inhibition in vivo at 25 mg/kg of 59%. The IC50 in series [3] came to 0.012 µM.
